Activity, IC50 and EC50 data for 17 compounds are collected here from ChEMBL document CHEMBL1152524, “Preparation of C-23 esterified silybin derivatives and evaluation of their lipid peroxidation inhibitory and DNA protective properties” (Bioorg Med Chem, 2009).

Assay [1] in a line: Antioxidant activity assessed as superoxide anion scavenging activity at 100 ug/mL after 5 mins by NBT reduction assay. It is filed as functional.
Assay [2] has as its system Radical scavenging activity. The assay is described as follows: Antioxidant activity assessed as DPPH radical scavenging activity at 100 ug/mL after 30 mins. It is filed as functional. For orientation: Loss of DPPH colour is used to gauge radical scavenging.
Assay [3] deals with Liver. Kind of assay: Inhibition of FeSO4-induced lipid peroxidation in Sprague-Dawley rat liver homogenate assessed as decrease in malondialdehyde level after 1 hr by TBA assay. The format is functional, tissue-based.
Assay [4] is described as follows: Antioxidant activity assessed as ferrous ion chelating activity after 30 mins by spectrophotometry. The format is functional.
Assay [5] concerns Radical scavenging activity. The assay is described as follows: Antioxidant activity assessed as DPPH radical scavenging activity after 30 mins. The format is functional.
Assay [6] is described as follows: Antioxidant activity assessed as protection against H2O2-induced pcDNA3.1(+) scission at 100 ug/mL after 30 mins by […] staining-based gel electrophoresis. The format is functional.
A short description of assay [7]: Antioxidant activity assessed as superoxide anion scavenging activity after 5 mins by NBT reduction assay. It is filed as functional.
The nature of assay [8]: Antioxidant activity assessed as protection against H2O2-induced pcDNA3.1(+) scission after 30 mins by […] staining-based gel electrophoresis. It is filed as functional.

SMILES strings stand for the structures. Activity calls are given as the source filed them. The rule behind the calls is not given here.

The IC50 is the midpoint of a concentration-inhibition curve. As usually defined, the EC50 is the concentration that produces a half-maximal response. Turning to `COc1cc(C2Oc3cc([C@H]4Oc5cc(O)cc(O)c5C(=O)[C@@H]4O)ccc3OC2CO)ccc1O` (some centres not stated) [SILIBININ], the Activity in assay [1] stood at 38.2%; in assay [2] it was 16.6%. Further, the half-maximal inhibitory concentration (IC50) in assay [3] was found to be 22.7 µM. In assay [4], the EC50 worked out at 196 µM.
Turning to `COc1cc(C2Oc3cc([C@H]4Oc5cc(O)cc(O)c5C(=O)[C@@H]4O)ccc3OC2COC(=O)c2cc(N)cc([N+](=O)[O-])c2)ccc1O` (some centres not stated), the Activity in assay [1] is 54.3%; in assay [2] it was 59.9%; in assay [3] it was “Dose-dependent effect”. In addition, the EC50 was 127 µM in assay [5], 129 µM in assay [7] and above 300 µM in assay [4]. In assay [3], the IC50 came to 0.2 µM. The outcome in assay [6] was inactive.
For the compound `COc1cc(C2Oc3cc([C@H]4Oc5cc(O)cc(O)c5C(=O)[C@@H]4O)ccc3OC2COC(=O)c2ccc(OC)c(OC)c2)ccc1O` (mixture of isomers), the Activity is 37.2% in assay [1], 34.2% in assay [2] and “Dose-dependent effect” in assay [8]. Besides, in assay [3], the IC50 was determined as 16 µM. Moreover, the outcome in assay [6] was Active. In assay [4], the EC50 was 77 µM.
In the case of `COc1ccc(C(=O)OCC2Oc3ccc([C@H]4Oc5cc(O)cc(O)c5C(=O)[C@@H]4O)cc3OC2c2ccc(O)c(OC)c2)cc1` (relative stereo), the Activity in assay [1] worked out at 6.5%; in assay [2], 37.1%. Moreover, the IC50 in assay [3] stood at 21 µM. Also, the result in assay [6] was inactive. The EC50 in assay [4] was 73.3 µM.
In the case of `COc1cc(C2Oc3cc([C@H]4Oc5cc(O)cc(O)c5C(=O)[C@@H]4O)ccc3OC2COC(=O)/C=C/c2ccc(C)cc2)ccc1O` (relative stereo), the results for the Activity in assay [1] and in assay [2] were 7.3% and 33.3%, respectively. In assay [3], the IC50 is 14.7 µM. The outcome in assay [6] was Active. The EC50 in assay [4] came to 136 µM.
`COc1cc(C2Oc3cc([C@H]4Oc5cc(O)cc(O)c5C(=O)[C@@H]4O)ccc3OC2COC(=O)c2cc(OC)c(OC)c(OC)c2)ccc1O` (relative stereo): the Activity in assay [1] is 36.1%; in assay [2] it was 52.6%; in assay [8], “Dose-dependent effect”. Besides, the EC50 in assay [5] was determined as 145 µM; in assay [4], 94.8 µM. In addition, the IC50 in assay [3] worked out at 25.7 µM. In addition, the outcome in assay [6] was Active.
In the case of `COc1cc(C2Oc3cc([C@H]4Oc5cc(O)cc(O)c5C(=O)[C@@H]4O)ccc3OC2COC(=O)/C=C/c2ccc(Cl)cc2)ccc1O` (relative stereo), the Activity in assay [1] is 9.1%; in assay [2] it was 18.4%; in assay [8], “Dose-dependent effect”. Moreover, the IC50 in assay [3] worked out at 12 µM. The outcome in assay [6] was Active. Also, the EC50 in assay [4] was found to be 87.9 µM.
As to `CCOC(=O)CC(=O)OCC1Oc2ccc([C@H]3Oc4cc(O)cc(O)c4C(=O)[C@@H]3O)cc2OC1c1ccc(O)c(OC)c1` (relative stereo), the results for the Activity in assay [1] and in assay [2] were 60.1% and 16.2%, respectively. For the same compound, the IC50 in assay [3] is 33.4 µM. For the same compound, in assay [6], the result was Active. Further, the half-maximal effective concentration (EC50) turned out to be 113 µM in assay [7] and 101 µM in assay [4].
`COc1cc(C2Oc3cc([C@H]4Oc5cc(O)cc(O)c5C(=O)[C@@H]4O)ccc3OC2COC(=O)c2ccc3c(c2)OCO3)ccc1O` (relative stereo): the figures for the Activity in assay [1] and in assay [2] were 7.3% and 31.7%, respectively. In assay [3], the IC50 was 20.8 µM. Further, the result in assay [6] was inactive. Moreover, the 50% effective concentration (EC50) in assay [4] turned out to be 108 µM.
In the case of `O=c1c(O)c(-c2ccc(O)c(O)c2)oc2cc(O)cc(O)c12` [QUERCETIN], the Activity in assay [1] was 93.8%; in assay [2], 96.8%; in assay [3], “Dose-dependent effect”. The EC50 in assay [5] worked out at 5.5 µM; in assay [7], 31.8 µM; in assay [4], 236 µM. Also, in assay [3], the IC50 was found to be 1.8 µM.
Take `O=C([O-])CN(CCN(CC(=O)[O-])CC(=O)O)CC(=O)O.[Na+].[Na+]` [EDETATE DISODIUM ANHYDROUS]: in assay [4], the EC50 was 16.2 µM.
In the case of `COc1cc(C2Oc3cc([C@H]4Oc5cc(O)cc(O)c5C(=O)[C@@H]4O)ccc3OC2COC(=O)c2cc([N+](=O)[O-])cc([N+](=O)[O-])c2)ccc1O` (relative stereo), the Activity was 32% in assay [1] and 22.1% in assay [2]. Further, in assay [3], the IC50 was found to be 14.6 µM. In addition, the result in assay [6] was inactive. Further, the EC50 in assay [4] turned out to be 205 µM.
On to `COc1cc(C2Oc3cc([C@H]4Oc5cc(O)cc(O)c5C(=O)[C@@H]4O)ccc3OC2COC(=O)/C=C/c2ccc(Br)cc2)ccc1O` (relative stereo), for which the Activity in assay [1] is 6.5%; in assay [2] it was 19.8%; in assay [8], “Dose-dependent effect”. Moreover, the IC50 in assay [3] was 16.3 µM. In assay [6], the outcome was Active. For the same compound, the 50% effective concentration (EC50) in assay [4] was determined as 88.9 µM.
With `COc1cc(C2Oc3cc([C@H]4Oc5cc(O)cc(O)c5C(=O)[C@@H]4O)ccc3OC2COC(=O)c2ccc([N+](=O)[O-])cc2)ccc1O` (relative stereo), the result in assay [1] and in assay [6] was inactive. In addition, the Activity in assay [2] was determined as 38.6%. Besides, the IC50 in assay [3] turned out to be 12.6 µM. The EC50 in assay [4] is above 300 µM.
Consider `COc1cc(C2Oc3cc([C@H]4Oc5cc(O)cc(O)c5C(=O)[C@@H]4O)ccc3OC2COC(=O)c2ccccc2)ccc1O` (relative stereo), for which the outcome in assay [1] was inactive. For the same compound, the Activity in assay [2] was 40.4%; in assay [8], “Dose-dependent effect”. Besides, in assay [3], the IC50 is 12.7 µM. For the same compound, the outcome in assay [6] was Active. For the same compound, in assay [4], the EC50 worked out at 105 µM.
For `COc1cc(C2Oc3cc([C@H]4Oc5cc(O)cc(O)c5C(=O)[C@@H]4O)ccc3OC2COC(=O)c2cccc(Cl)c2)ccc1O` (some centres not stated), the Activity in assay [1] is 7%; in assay [2] it was 5.6%. The IC50 in assay [3] was found to be 14.2 µM. In addition, the outcome in assay [6] was Active. For the same compound, in assay [4], the EC50 is 106 µM.
In the case of `COc1cc(C2Oc3cc([C@H]4Oc5cc(O)cc(O)c5C(=O)[C@@H]4O)ccc3OC2COC(=O)c2ccc(N)cc2)ccc1O` (relative stereo), the Activity in assay [1] turned out to be 43.3%; in assay [2], 16.4%. Further, the IC50 in assay [3] came out at 14.3 µM. In addition, the result in assay [6] was inactive. In addition, the EC50 in assay [4] was found to be 128 µM.
